Converted amounts (≈) assume the structure as drawn.
Columns and labels:
[1] = tested on: Bel-7402; assay: Cytotoxicity against human Bel7402 cells; assay type: functional, cell-based
[2] = tested on: HL-60; assay: Cytotoxicity against human HL60 cells; assay type: functional, cell-based

`C=C1C(=O)O[C@H]2[C@H]1[C@H](OC(=O)/C(C)=C\C)CC(CO)=C1C[C@H](O)[C@](C)(O)[C@@H]12` [EUPACHINILIDE A] gave an IC50 [1] of 72.2 µg/mL (≈ 191 µM) and an IC50 [2] of 10.8 µg/mL (≈ 28.5 µM).
With `C=C1C(=O)O[C@@H]2/C=C(\C)C[C@H](O)/C=C(\C)C[C@@H](OC(=O)/C(C)=C/COC(C)=O)[C@@H]12` [EUPACHINILIDE I] the IC50 [1] was 3.6 µg/mL (≈ 8.9 µM) and the IC50 [2] was 0.94 µg/mL (≈ 2.32 µM).
Molecule `C=C1C(=O)O[C@H]2[C@H]1[C@H](OC(=O)/C(C)=C/CO)C[C@](O)(CCl)[C@@H]1[C@H](OC(C)=O)[C@H]3O[C@@]3(C)[C@H]21` [EUPACHNILIDE F] has an IC50 [1] of 3.7 µg/mL (≈ 7.86 µM) and an IC50 [2] of 0.87 µg/mL (≈ 1.85 µM).
`C=C1C(=O)O[C@H]2[C@H]1[C@H](OC(=O)/C(C)=C/CO)C[C@](O)(CCl)[C@@H]1[C@H](O)[C@H]3O[C@@]3(C)[C@H]21` [EUPACHINILIDE E] showed an IC50 [1] of 18 µg/mL (≈ 42 µM) and an IC50 [2] of 1.3 µg/mL (≈ 3.03 µM).
`CC[C@@]1(O)C(=O)OCc2c1cc1n(c2=O)Cc2cc3cc(O)ccc3nc2-1` [HYDROXYCAMPTOTHECIN] was tested, and the IC50 [1] was 0.62 µg/mL (≈ 1.7 µM) and the IC50 [2] was 0.024 µg/mL (≈ 0.0659 µM).
